Like-named read-outs stand apart in the source and are kept apart here.
What was measured:
[1] = system: Breast cancer SKBR3; assay: Cell proliferative activity (MTT / cck-8); assay type: cell-based; details: Homo sapiens, SK-BR-3, read-out: Half-Inhibitory Concentration IC50 SKBR3
[2] = system: HCT116 cells; assay: Therapeutic effect on the colon cancer HCT116 model (intravenous)
[3] = target: HDAC2 (Homo sapiens, UniProt Q92769); details: read-out: IC50 HDAC2
Protocol: (§1) The HDAC inhibitory activity was determined by fluorescence-coupled acetylated peptide substrate assay (Lys-Ac-AMC). HDAC1 protein was purchased from BPS Bioscience, and the reaction buffer system was a modified tris(hydroxymethyl)aminomethane buffer (pH 7.0). The small molecule compounds of the present invention were prepared by being dissolved in 100% DMSO. HDAC was prepared in a buffer at a certain concentration as an enzyme solution; trypsin and fluorescent group 4-amino-7-coumarin coupled-acetylated peptide (Ac-peptide) substrate were prepared in a buffer at a certain concentration as a substrate solution. The compounds were added into the reaction wells in a 384-well plate at a designed concentration of 10 μM, 1 μM, 0.5 μM, 0.1 μM, 0.05 μM, 0.01 μM, 0.005 μM, 0.001 μM, and 0.00005 μM, respectively, and then 15 μl of the HDAC solution was added into the reaction wells (15 μl of blank buffer to the control well). […] The results were analyzed by GraphPad Prism software and IC50 values were calculated according to the formula: Y=Background Data+(Top Data−Background Data)/(1+10^((Log IC50−X) a curve slope)), where Y: the inhibition rate (%) and X: the concentration of the compound.

[4] = system: Colon cancer HT29; assay: Cell proliferative activity (MTT / cck-8); assay type: cell-based; details: Homo sapiens, HT-29, read-out: Half-Inhibitory Concentration IC50 HT29
[5] = Assay on the bioavailability in SD rats (plasma, LC-MS/MS); assay type: in vivo; details: for Area under the curve / Clearance rate / Distribution volume / Half-life / Maximum plasma concentration: dose 12 mg/kg (Table 6)
[6] = target: T1, HDAC6 (Homo sapiens, UniProt Q9UBN7); assay: HDAC inhibitory activity, fluorescence-coupled acetylated peptide substrate assay; assay type: biochemical
T1 sequence (Q9UBN7 1-1215): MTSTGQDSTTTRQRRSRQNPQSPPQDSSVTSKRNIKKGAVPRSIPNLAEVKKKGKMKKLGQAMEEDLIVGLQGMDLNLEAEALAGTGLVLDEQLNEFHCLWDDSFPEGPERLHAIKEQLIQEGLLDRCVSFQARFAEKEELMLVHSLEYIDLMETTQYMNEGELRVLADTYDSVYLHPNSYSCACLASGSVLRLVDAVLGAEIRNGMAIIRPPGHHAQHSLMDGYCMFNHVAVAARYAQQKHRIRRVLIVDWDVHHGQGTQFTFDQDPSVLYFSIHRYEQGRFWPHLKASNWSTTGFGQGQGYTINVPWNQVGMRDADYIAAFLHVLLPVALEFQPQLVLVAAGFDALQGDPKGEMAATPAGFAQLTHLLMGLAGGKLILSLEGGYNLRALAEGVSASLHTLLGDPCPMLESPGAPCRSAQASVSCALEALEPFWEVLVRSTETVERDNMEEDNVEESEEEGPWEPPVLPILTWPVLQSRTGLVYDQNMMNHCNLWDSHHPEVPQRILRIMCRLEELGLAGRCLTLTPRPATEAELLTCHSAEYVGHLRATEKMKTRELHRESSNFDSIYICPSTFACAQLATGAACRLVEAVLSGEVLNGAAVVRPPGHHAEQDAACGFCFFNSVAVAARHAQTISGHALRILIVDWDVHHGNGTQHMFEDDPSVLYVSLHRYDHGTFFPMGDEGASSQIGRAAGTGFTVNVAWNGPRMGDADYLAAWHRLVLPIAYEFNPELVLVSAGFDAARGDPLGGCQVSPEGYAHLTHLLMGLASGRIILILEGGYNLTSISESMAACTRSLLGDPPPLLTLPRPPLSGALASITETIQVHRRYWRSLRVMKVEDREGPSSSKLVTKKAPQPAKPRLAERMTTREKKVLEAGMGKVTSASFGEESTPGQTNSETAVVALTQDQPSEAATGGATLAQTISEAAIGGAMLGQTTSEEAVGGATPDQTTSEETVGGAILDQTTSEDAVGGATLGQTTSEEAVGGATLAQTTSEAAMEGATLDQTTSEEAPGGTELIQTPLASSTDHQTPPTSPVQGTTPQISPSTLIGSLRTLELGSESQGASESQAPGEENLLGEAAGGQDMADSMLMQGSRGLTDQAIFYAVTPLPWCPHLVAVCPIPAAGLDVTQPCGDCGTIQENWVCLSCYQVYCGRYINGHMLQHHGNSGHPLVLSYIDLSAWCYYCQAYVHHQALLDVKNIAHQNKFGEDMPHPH
Protocol: as §1

[7] = system: Ovarian cancer A2780s; assay: Cell proliferative activity (MTT / cck-8); assay type: cell-based; details: Homo sapiens, read-out: Half-Inhibitory Concentration IC50 A2780s
[8] = target: T2, HDAC8 (Homo sapiens, UniProt Q9BY41); assay: HDAC inhibitory activity, fluorescence-coupled acetylated peptide substrate assay
T2 sequence (Q9BY41 1-377): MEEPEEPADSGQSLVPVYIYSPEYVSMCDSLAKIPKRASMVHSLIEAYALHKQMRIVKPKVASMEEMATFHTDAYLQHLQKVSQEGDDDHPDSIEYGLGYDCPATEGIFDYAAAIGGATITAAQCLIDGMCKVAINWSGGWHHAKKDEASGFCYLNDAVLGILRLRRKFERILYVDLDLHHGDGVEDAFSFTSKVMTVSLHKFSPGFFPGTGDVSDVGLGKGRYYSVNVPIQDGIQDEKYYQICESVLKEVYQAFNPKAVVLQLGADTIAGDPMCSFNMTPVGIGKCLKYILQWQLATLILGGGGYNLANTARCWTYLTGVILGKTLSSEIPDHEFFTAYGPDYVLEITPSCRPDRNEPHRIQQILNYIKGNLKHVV

[9] = system: A2780s cells; details: A2780s model, 16 times; for tumor inhibitory rate: vs solvent group
[10] = system: MV4-11 cells; assay: Therapeutic effect on the MV4-11 acute myeloid leukemia model; assay type: in vivo, NOD/SCID mice; details: MV4-11 model, 50 mg/kg intravenously once every other day, 12 times
[11] = system: Lung cancer A549; assay: Cell proliferative activity (MTT / cck-8); assay type: cell-based; details: Homo sapiens, read-out: Half-Inhibitory Concentration IC50 A549
[12] = system: HBL-1 cells; assay: Therapeutic effect on the B-cell lymphoma HBL-1 subcutaneous tumor model; assay type: in vivo, NOD/SCID mice; details: HBL-1 model, 9 times, vs solvent group
[13] = 50 mg/kg intragastrically once every other day

HDAC2, sequence (Q92769 whole entry): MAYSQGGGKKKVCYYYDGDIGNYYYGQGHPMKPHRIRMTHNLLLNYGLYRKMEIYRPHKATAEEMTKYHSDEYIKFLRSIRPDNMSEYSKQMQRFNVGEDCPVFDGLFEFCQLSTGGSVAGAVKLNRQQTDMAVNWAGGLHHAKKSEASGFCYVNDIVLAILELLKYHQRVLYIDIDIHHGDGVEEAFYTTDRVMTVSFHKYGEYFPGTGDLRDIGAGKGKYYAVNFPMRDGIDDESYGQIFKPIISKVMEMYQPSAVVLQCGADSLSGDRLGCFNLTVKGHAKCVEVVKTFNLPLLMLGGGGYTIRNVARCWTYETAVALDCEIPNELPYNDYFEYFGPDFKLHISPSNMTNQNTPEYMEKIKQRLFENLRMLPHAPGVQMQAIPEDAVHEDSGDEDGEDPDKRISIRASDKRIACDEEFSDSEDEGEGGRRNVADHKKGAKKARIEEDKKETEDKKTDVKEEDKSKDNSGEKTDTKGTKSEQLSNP

For `COc1ccc(N(C)c2nc(C)nc3ccccc23)cc1OCCCC(=O)NO` [III-2, N-hydroxy-4-(2-methoxy-5-(methyl(2-methyl-4-quinazolinyl)amino)phenoxy) butanamide], the IC50 [1] was 22 ± 8 nM, the “survival time of mice” value ([2]; 50 mg/kg intravenously once every other day, 9 times, vs blank control, P<0.01) was “significantly prolonged the survival time of mice” and the “effect prolonging the survival time compared with positive control group” value ([2]; 50 mg/kg intravenously, SAHA 50 mg/kg intraperitoneally) was “superior to that of the positive control group”. For the same compound, the IC50 [3] was 386 ± 7 nM, the IC50 [4] was 72 ± 37 nM and the “Area under the curve” value ([5]; intravenous administration) was 2434.117 μg/L · h. It also gave a Clearance rate ([5]; intravenous administration) of 116.8 mL/min/kg, a Distribution volume ([5]; intravenous administration) of 61.263 L/kg and a Half-life ([5]; intravenous administration) of 7.658 h. The Maximum plasma concentration ([5]; intravenous administration) was 2213.217 µg/L, the Bioavailability ([5]; oral administration) was 47.0% and the “Area under the curve” value ([5]; oral administration) was 1242.234 μg/L · h. For the same compound, the Clearance rate ([5]; oral administration) was 214.62 mL/min/kg, the Distribution volume ([5]; oral administration) was 154.811 L/kg and the Half-life ([5]; oral administration) was 9.62 h. The Maximum plasma concentration ([5]; oral administration) was 238.133 µg/L, the IC50 ([6]; Table 2) was 10 to 100 nM and the IC50 ([6]; Table 4, Class IIb) was 17 ± 2 nM. It also gave an IC50 [7] of 46 ± 11 nM, an IC50 ([8]; IC50 HDAC8, Table 2) of over 1000 nM and an IC50 ([8]; read-out: IC50 HDAC8, Table 4, Class I) of 3400 ± 487 nM. The tumor inhibitory rate ([9]; 12.5 mg/kg intragastrically once every other day) was 78.49%, the tumor inhibitory rate ([9]; 25 mg/kg intragastrically once every other day) was 82.02% and the “death of mice during the experiment” value [9, 13] was “one mouse died”. The tumor inhibitory rate [9, 13] was 81.70%, the “activity compared with positive control SAHA” value [10] was “superior to that of the positive control group SAHA” and the tumor growth ([10]; compared with blank control, P<0.01) was “significantly inhibited tumor growth”. For the same compound, the IC50 [11] was 104 ± 29 nM, the tumor inhibitory rate ([12]; 10 mg/kg intragastrically once every other day) was 31.70% and the tumor inhibitory rate ([12]; 20 mg/kg intragastrically once every other day) was 25.23%. For the same compound, the tumor inhibitory rate ([12]; 40 mg/kg intragastrically once every other day) was 58.22% and the tumor inhibitory rate ([12]; 80 mg/kg intragastrically once every other day) was 56.88%.

Source: patent publication US10532053B2, “Histone deacetylase inhibitor, and preparation method and use thereof” (GUANGDONG ZHONGSHENG PHARMACEUTICAL CO., LTD, priority 2015, dated 2020)
